16 molecules from patent US11548900B2, “Oxazino-quinazoline and oxazino-quinoline type compound, preparation method and uses thereof” (BEIJING SCITECH-MQ PHARMACEUTICALS LIMITED, priority 2018, dated 2023) can be followed below.

Some results are limits rather than exact numbers.

The target in one experiment is HER2 kinase (Homo sapiens (Human), UniProt P04626). Kind of experiment: Inhibition of HER2 kinase activity (ULight-labeled PolyGT substrate). The settings on record: HER2 kinase 10 nM, ATP 10 μM, 2 hours. Format: biochemical. The essentials:
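Eleven-point 3-fold dilutions (0.042 nM–2.5 μM final, 1% DMSO) tested in duplicate against 10 nM HER2 with 100 nM ULight-labelled PolyGT and 10 μM ATP. Reaction ran 2 h at RT after 5 min pre-incubation; 665/615 nm TR-FRET ratio used to derive inhibition and IC50.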

For a further experiment, the target named is EGFR kinase (Homo sapiens (Human), UniProt P00533). The experiment can be described thus: Inhibition of EGFR kinase activity (ULight-labeled JAK-1 (Tyr1023) peptide substrate). In kind it is biochemical. The settings on record: EGFR kinase 0.35 nM, ATP 150 μM, 2 hours. The essentials:
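TR-FRET kinase assay: 0.35 nM EGFR, 150 μM ATP, 100 nM substrate, 2 h at room temperature in the dark after 5 min enzyme-compound preincubation, 1% DMSO. Compounds tested as 11-point 3-fold series, 2.5 μM to 0.042 nM final, duplicate; IC50 from 665/615 nm ratio-based inhibition.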

The next experiment relates to BT474 cells. The experiment can be described thus: Inhibition of cell proliferation, BT474 (CCK-8, 72 h). Format: cell-based. The procedure, abridged: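 BT474 and HCC827 seeded at 10,000 and 3000 cells/well respectively, cultured overnight, then exposed to 10-point 3-fold compound dilutions (top stock 10 mM; 0.25% DMSO final) for 72 h. Viability by CCK-8, OD450; survival normalised to untreated and cell-free blanks, IC50 from curve fit.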

The test system of a further experiment is HCC827 cells. Kind of experiment: Inhibition of cell proliferation, HCC827 (CCK-8, 72 h). Format: cell-based. The settings on record: 72 h incubation. How it is done: The assay for the inhibition of cell proliferation by small molecular compounds was carried out using the method as follows:
1. 600 μL pancreatin was added to a T75 cell culture flask, which was digested in a 37° C. incubator for about 1 min before 5 mL of DMEM complete culture solution was added, blew evenly, transferred to a 15 mL centrifuge tube, and centrifuged at 1000 rpm for 4 min;
2. The supernatant was removed and 5 mL DMEM complete culture solution was added, blew evenly, and 10 μL cell suspension was taken and mixed with 10 μL 0.4% Trypan Blue, and counted using a cell counter;
3. BT474 and HCC827 cell lines were seeded in 96-well plates at a cell density of 10,000 and 3000 cells/well/80 μL, respectively, and cultured overnight. Only sterile water was added to the 36 wells on the periphery of the 96-well plate without adding cells, and only the 60 wells in the center of the 96-well plate were used for cell assays and controls;
4. Dilution of compounds: the compounds were diluted with a 3-fold dilution to make 10 concentrations in total with an initial concentration of 10 mM;
5. 20 μL of different compounds with different concentrations were added to each well, and 20 μL of complete culture solution was added to the remaining wells. The final concentration of DMSO in each well is 0.25%;
6. After 72 h of incubation, 10 μL CCK-8 reagent was added to each well, and incubated at 37° C. for 1-2 h; and the OD value was read at 450 nm;
7. Cell survival rate (%)=[(As−Ab)/(Ac−Ab)]*100%
As: Assay well (medium containing cell, CCK-8, compound)
Ac: Control well (medium containing cell, CCK-8)
Ab: Blank well (CCK-8, medium without cell and compound)
8. The value was imported into Graphpad Prism5 software for the calculation of IC50s (compound concentration at which 50% maximum survival rate is observed).

The mark [1] stands for this setting: Homo sapiens, BT-474, 72 h incubation.

Chain of HER2 kinase (P04626 23-1255): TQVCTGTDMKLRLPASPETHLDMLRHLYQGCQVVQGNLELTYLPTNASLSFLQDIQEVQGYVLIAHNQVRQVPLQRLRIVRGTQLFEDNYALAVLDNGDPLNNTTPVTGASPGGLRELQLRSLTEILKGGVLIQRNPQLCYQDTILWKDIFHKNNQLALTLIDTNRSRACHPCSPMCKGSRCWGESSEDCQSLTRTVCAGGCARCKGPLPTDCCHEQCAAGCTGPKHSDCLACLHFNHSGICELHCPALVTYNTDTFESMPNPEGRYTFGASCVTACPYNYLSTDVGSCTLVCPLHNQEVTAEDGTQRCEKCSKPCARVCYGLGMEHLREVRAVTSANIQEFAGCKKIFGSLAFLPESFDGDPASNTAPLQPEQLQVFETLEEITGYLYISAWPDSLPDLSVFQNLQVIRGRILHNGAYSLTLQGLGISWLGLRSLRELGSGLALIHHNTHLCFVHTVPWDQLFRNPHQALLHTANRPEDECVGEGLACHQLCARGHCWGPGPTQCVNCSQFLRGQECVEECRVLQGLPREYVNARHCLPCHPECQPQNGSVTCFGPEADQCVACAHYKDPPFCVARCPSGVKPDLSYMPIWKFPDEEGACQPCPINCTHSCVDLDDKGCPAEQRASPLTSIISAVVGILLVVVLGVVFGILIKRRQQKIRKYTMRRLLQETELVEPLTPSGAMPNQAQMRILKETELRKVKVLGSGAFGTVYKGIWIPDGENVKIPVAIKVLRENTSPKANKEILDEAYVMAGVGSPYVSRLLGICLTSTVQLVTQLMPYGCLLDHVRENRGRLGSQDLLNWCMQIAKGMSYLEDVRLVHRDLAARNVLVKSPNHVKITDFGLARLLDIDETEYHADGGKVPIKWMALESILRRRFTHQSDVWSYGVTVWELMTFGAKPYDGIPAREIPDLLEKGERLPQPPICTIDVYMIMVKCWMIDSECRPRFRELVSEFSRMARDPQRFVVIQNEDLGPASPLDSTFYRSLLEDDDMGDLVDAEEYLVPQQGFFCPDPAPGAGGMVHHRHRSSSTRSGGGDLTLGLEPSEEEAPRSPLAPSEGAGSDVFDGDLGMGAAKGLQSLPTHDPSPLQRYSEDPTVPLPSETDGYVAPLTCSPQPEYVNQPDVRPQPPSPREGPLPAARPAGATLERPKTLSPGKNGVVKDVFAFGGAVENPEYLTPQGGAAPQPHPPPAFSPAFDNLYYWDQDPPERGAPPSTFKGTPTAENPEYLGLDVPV
Chain of EGFR kinase (P00533 25-1210): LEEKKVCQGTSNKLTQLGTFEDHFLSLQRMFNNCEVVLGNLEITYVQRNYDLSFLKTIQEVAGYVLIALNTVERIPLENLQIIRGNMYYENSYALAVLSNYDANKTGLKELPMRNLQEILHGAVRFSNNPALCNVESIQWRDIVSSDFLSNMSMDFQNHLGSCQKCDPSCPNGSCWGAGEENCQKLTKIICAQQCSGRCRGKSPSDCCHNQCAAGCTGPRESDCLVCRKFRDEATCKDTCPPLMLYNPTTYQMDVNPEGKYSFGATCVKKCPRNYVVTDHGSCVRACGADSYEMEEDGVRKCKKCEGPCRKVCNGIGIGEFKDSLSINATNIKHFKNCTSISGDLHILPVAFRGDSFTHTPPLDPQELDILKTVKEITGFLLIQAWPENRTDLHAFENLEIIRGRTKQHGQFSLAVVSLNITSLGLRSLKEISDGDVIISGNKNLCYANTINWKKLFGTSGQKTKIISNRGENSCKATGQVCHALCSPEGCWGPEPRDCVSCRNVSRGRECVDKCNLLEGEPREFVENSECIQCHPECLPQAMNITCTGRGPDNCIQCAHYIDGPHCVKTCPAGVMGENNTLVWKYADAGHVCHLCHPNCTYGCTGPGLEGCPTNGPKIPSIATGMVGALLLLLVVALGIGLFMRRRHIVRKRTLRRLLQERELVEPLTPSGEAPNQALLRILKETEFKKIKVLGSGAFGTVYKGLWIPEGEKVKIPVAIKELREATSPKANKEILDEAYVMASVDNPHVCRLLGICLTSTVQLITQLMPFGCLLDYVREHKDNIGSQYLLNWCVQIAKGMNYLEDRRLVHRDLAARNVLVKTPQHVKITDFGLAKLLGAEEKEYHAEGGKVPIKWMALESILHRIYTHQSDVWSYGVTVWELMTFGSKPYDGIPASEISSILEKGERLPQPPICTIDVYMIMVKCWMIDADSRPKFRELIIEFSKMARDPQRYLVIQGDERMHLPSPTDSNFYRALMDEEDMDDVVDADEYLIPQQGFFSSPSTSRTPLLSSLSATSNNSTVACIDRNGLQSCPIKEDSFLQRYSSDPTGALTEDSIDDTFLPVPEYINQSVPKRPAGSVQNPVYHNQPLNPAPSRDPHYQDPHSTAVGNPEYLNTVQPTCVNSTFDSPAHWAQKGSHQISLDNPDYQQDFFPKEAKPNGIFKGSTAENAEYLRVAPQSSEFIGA

With `CN(C)C/C=C/C(=O)N1CCOc2c1ccc1ncnc(Nc3ccc(Oc4cccc(F)c4)cc3)c21` [Example 49, (E)-4-(dimethylamino)-1-(10-((4-(3-fluorophenoxy)phenyl)amino)-2,3-dihydro-4H-[1,4]oxazino[2,3-f]quinazolin-4-yl)but-2-en-1-one], the 50% inhibitory concentration (IC50) against HER2 kinase is no more than 50 nM; against EGFR kinase, no more than 50 nM; with BT474 cells (setting [1]), no more than 50 nM; in the experiment on HCC827 cells (Homo sapiens), 50 to 500 nM.

In the case of `CN(C)C/C=C/C(=O)N1CCOc2c1ccc1ncnc(Nc3ccc(Oc4ccccc4F)cc3)c21` [Example 50, (E)-4-(dimethylamino)-1-(10-((4-(2-fluorophenoxy)phenyl)amino)-2,3-dihydro-4H-[1,4]oxazino[2,3-f]quinazolin-4-yl)but-2-en-1-one], the IC50 against HER2 kinase is no more than 50 nM; against EGFR kinase it was no more than 50 nM; with BT474 cells (setting [1]) it was no more than 50 nM; with HCC827 cells (Homo sapiens), 500 to 5000 nM.

Regarding `CN(C)C/C=C/C(=O)N1CCOc2c1ccc1ncnc(Nc3ccc(Oc4ccc(F)cc4)cc3)c21` [Example 51, (E)-4-(dimethylamino)-1-(10-((4-(4-fluorophenoxy)phenyl)amino)-2,3-dihydro-4H-[1,4]oxazino[2,3-f]quinazolin-4-yl)but-2-en-1-one], the IC50 against HER2 kinase was no more than 50 nM; at EGFR kinase, no more than 50 nM; with BT474 cells (setting [1]), no more than 50 nM; in the experiment with HCC827 cells (Homo sapiens), 500 to 5000 nM.

`COc1ccccc1Oc1ccc(Nc2ncnc3ccc4c(c23)OCCN4C(=O)/C=C/CN(C)C)cc1` [Example 53, (E)-4-(dimethylamino)-1-(10-((4-(2-methoxyphenoxy)phenyl)amino)-2,3-dihydro-4H-[1,4]oxazino[2,3-f]quinazolin-4-yl)but-2-en-1-one]: the half-maximal inhibitory concentration (IC50) against HER2 kinase is no more than 50 nM; on EGFR kinase it was no more than 50 nM; in the experiment with BT474 cells (setting [1]), no more than 50 nM; in the experiment with HCC827 cells (Homo sapiens), 500 to 5000 nM.

On to `CN(C)C/C=C/C(=O)N1CCOc2c1ccc1ncnc(Nc3ccc(Oc4cccnc4)cc3)c21` [Example 54], for which the IC50 against HER2 kinase was no more than 50 nM; against EGFR kinase, 500 to 5000 nM; in the experiment on BT474 cells (setting [1]), no more than 50 nM; in the experiment on HCC827 cells (Homo sapiens), 500 to 5000 nM.

`COc1cccc(Oc2ccc(Nc3ncnc4ccc5c(c34)OCCN5C(=O)/C=C/CN(C)C)cc2)c1` [Example 56, (E)-4-(dimethylamino)-1-(10-((4-(3-methoxyphenoxy)phenyl)amino)-2,3-dihydro-4H-[1,4]oxazino[2,3-f]quinazolin-4-yl)but-2-en-1-one]: the half-maximal inhibitory concentration (IC50) was no more than 50 nM against HER2 kinase, no more than 50 nM at EGFR kinase, no more than 50 nM with BT474 cells (setting [1]) and 500 to 5000 nM with HCC827 cells (Homo sapiens).

On to `CN(C)C/C=C/C(=O)N1CCOc2c1ccc1ncnc(Nc3ccc(Oc4nccs4)cc3)c21` [Example 57, (E)-4-(dimethylamino)-1-(10-((4-(thiazol-2-yloxy)phenyl)amino)-2,3-dihydro-4H-[1,4]oxazino[2,3-f]quinazolin-4-yl)but-2-en-1-one], for which the IC50 at HER2 kinase was no more than 50 nM; against EGFR kinase, 50 to 500 nM; in the experiment on BT474 cells (setting [1]) it was no more than 50 nM; in the experiment on HCC827 cells (Homo sapiens) it was 500 to 5000 nM.

As for `CN(C)C/C=C/C(=O)N1CCOc2c1ccc1ncnc(Nc3ccc(Oc4ccccc4)c(Cl)c3)c21` [Example 59, (E)-4-(dimethylamino)-1-(10-((3-chloro-4-phenoxyphenyl)amino)-2,3-dihydro-4H-[1,4]oxazino[2,3-f]quinazolin-4-yl)but-2-en-1-one], the IC50 against HER2 kinase was no more than 50 nM; at EGFR kinase, no more than 50 nM; in the experiment on BT474 cells (setting [1]), no more than 50 nM; in the experiment on HCC827 cells (Homo sapiens), 500 to 5000 nM.

In the case of `CN(C)C/C=C/C(=O)N1CCOc2c1ccc1ncnc(Nc3ccc(OCc4ccc(F)cc4)cc3)c21` [Example 60, (E)-4-(dimethylamino)-1-(10-((4-((4-fluorobenzyl)oxy)phenyl)amino)-2,3-dihydro-4H-[1,4]oxazino[2,3-f]quinazolin-4-yl)but-2-en-1-one], the concentration for half-maximal inhibition (IC50) is no more than 50 nM against HER2 kinase, no more than 50 nM against EGFR kinase, no more than 50 nM in the experiment with BT474 cells (setting [1]) and 500 to 5000 nM in the experiment with HCC827 cells (Homo sapiens).

With `CN(C)C/C=C/C(=O)N1CCOc2c1ccc1ncnc(Nc3ccc(OCc4cccc(F)c4)cc3)c21` [Example 61, (E)-4-(dimethylamino)-1-(10-((4-((3-fluorobenzyl)oxy)phenyl)amino)-2,3-dihydro-4H-[1,4]oxazino[2,3-f]quinazolin-4-yl)but-2-en-1-one], the concentration for half-maximal inhibition (IC50) at HER2 kinase is no more than 50 nM; at EGFR kinase it was no more than 50 nM; in the experiment with BT474 cells (setting [1]) it was no more than 50 nM; in the experiment on HCC827 cells (Homo sapiens), greater than 5000 nM.

Regarding `CN(C)C/C=C/C(=O)N1CCOc2c1ccc1ncnc(Nc3ccc(OCc4cccc(C(F)(F)F)c4)cc3)c21` [Example 62], the IC50 was no more than 50 nM on HER2 kinase, no more than 50 nM at EGFR kinase, 50 to 500 nM in the experiment on BT474 cells (72 h incubation) and greater than 5000 nM in the experiment on HCC827 cells.

With `CN(C)C/C=C/C(=O)N1CCOc2c1ccc1ncnc(Nc3ccc(OCc4ccccn4)cc3)c21` [Example 63, (E)-4-(dimethylamino)-1-(10-((4-(pyridin-2-ylmethoxy)phenyl)amino)-2,3-dihydro-4H-[1,4]oxazino[2,3-f]quinazolin-4-yl)but-2-en-1-one], the IC50 was no more than 50 nM against HER2 kinase, 50 to 500 nM at EGFR kinase, no more than 50 nM in the experiment with BT474 cells (setting [1]) and 500 to 5000 nM in the experiment with HCC827 cells (Homo sapiens).

As to `CN(C)C/C=C/C(=O)N1CCOc2c1ccc1ncnc(Nc3ccc(OCc4cccs4)cc3)c21` [Example 64, (E)-4-(dimethylamino)-1-(10-((4-(thiophen-2-ylmethoxy)phenyl)amino)-2,3-dihydro-4H-[1,4]oxazino[2,3-f]quinazolin-4-yl)but-2-en-1-one], the concentration for half-maximal inhibition (IC50) at HER2 kinase was no more than 50 nM; on EGFR kinase, 50 to 500 nM; in the experiment with BT474 cells (setting [1]), no more than 50 nM; with HCC827 cells (Homo sapiens) it was 50 to 500 nM.

For the molecule `CN(C)C/C=C/C(=O)N1CCOc2c1ccc1ncnc(Nc3ccc(OCc4nccs4)cc3)c21` [Example 65, (E)-4-(dimethylamino)-1-(10-((4-(thiazol-2-ylmethoxy)phenyl)amino)-2,3-dihydro-4H-[1,4]oxazino[2,3-f]quinazolin-4-yl)but-2-en-1-one], the half-inhibitory concentration (IC50) is no more than 50 nM against HER2 kinase, no more than 50 nM on EGFR kinase, no more than 50 nM with BT474 cells (setting [1]) and 50 to 500 nM in the experiment on HCC827 cells (Homo sapiens).

Regarding `CN(C)C/C=C/C(=O)N1CCOc2c1ccc1ncnc(Nc3ccc(SCc4ccccc4)cc3)c21` [Example 66, (E)-4-(dimethylamino)-1-(10-((4-(benzylthio)phenyl)amino)-2,3-dihydro-4H-[1,4]oxazino[2,3-f]quinazolin-4-yl)but-2-en-1-one], the half-maximal inhibitory concentration (IC50) against HER2 kinase is no more than 50 nM; against EGFR kinase, no more than 50 nM; in the experiment on BT474 cells (setting [1]) it was no more than 50 nM; with HCC827 cells (Homo sapiens) it was 500 to 5000 nM.

Take `COc1cc(Nc2ncnc3ccc4c(c23)OCCN4C(=O)/C=C/CN(C)C)ccc1OCc1cccc(F)c1` [Example 68, (E)-4-(dimethylamino)-1-(10-((4-((3-fluorobenzyl)oxy)-3-methoxyphenyl)amino)-2,3-dihydro-4H-[1,4]oxazino[2,3-f]quinazolin-4-yl)but-2-en-1-one]: the concentration for half-maximal inhibition (IC50) against HER2 kinase was no more than 50 nM; against EGFR kinase, no more than 50 nM; in the experiment on BT474 cells (setting [1]), no more than 50 nM; in the experiment with HCC827 cells (Homo sapiens) it was 500 to 5000 nM.
